According to patent US20220289728A1, “MODULATORS OF TREX1” (Constellation Pharmaceuticals, Inc., priority 2019, published 2022):

The compounds below were run against T1, full length human TREX1 (Homo sapiens, UniProt Q9NSU2) (assay: TREX1 Biochemical Assay (fluorescence, dsDNA substrate degradation)). Conditions: 150 pM TREX1, 60 nM dsDNA substrate, 25 minutes at room temperature.
T1 construct: N-terminally His-Tev tagged full length human TREX1; His-TEV (His tag with TEV site) (N); made in house; host or cells: E. coli
T1 sequence (Q9NSU2 1-314): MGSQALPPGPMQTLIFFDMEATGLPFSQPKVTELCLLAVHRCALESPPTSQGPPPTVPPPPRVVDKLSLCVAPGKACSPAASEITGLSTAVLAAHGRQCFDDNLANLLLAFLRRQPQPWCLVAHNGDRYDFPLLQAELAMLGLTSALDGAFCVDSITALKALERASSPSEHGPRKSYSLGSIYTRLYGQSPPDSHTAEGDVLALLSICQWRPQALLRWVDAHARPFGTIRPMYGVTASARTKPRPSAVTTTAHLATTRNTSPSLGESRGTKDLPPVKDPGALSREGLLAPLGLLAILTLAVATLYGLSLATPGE
Procedure: Degradation of the dsDNA liberates free fluorophore to produce a fluorescent signal. Specifically, 7.5 μL of N-terminally His-Tev tagged full length human TREX1 (expressed in E. coli and purified in house) in reaction buffer (50 mM Tris (pH 7.4), 150 mM NaCl, 2 mM DTT, 0.1 mg/mL BSA, 0.01% (v/v) Tween-20 and 100 mM MgCl2) was added to a 384-well Black ProxiPlate Plus (Perkin Elmer) which already contained compound (150 nL) at varying concentrations as a 10 point dose-response in DMSO. To this was added 7.5 μL of dsDNA substrate (Strand A: 5′ TEX615/GCT AGG CAG 3′; Strand B: 5′ CTG CCT AGC/IAbRQSp (Integrated DNA Technologies)) in reaction buffer. Final concentrations were 150 pM TREX1, 60 nM dsDNA substrate in reaction buffer with 1.0% DMSO (v/v). After 25 minutes at room temperature, reactions were quenched by the addition of 5 μL of stop buffer (same as reaction buffer plus 200 mM EDTA). Final concentrations in the quenched reaction were 112.5 pM TREX1, 45 nM DNA and 50 mM EDTA in a volume of 20 μL. After a 5-minute incubation at room temperature, plates were read in a laser sourced Envision (Perkin-Elmer), measuring fluorescence at 615 nm following excitation w/570 nm light. IC50 values were calculated by comparing the measured fluorescence at 615 nm ratio relative to control wells pre-quenched w/stop buffer (100% inhibition) and no inhibitor (0% inhibition) controls as using non-linear least square four parameter fits and either Genedata or GraphPad Prism (GraphPad Software, Inc.).
`CN(c1nc(C(=O)Nc2cnoc2)c(O)c(=O)n1C)C(c1ccccc1)c1ncccc1Cl` (single isomer, unassigned) [Example 53] was tested, and the IC50 was < 0.1 µM.
With `CN(c1nc(C(=O)Nc2cnoc2)c(O)c(=O)n1C)C(c1ccccc1Cl)C1CC1` (single isomer, unassigned) [Example 69] the IC50 was < 0.1 µM.
In the case of `CN(Cc1cccc(Cl)c1)c1nc(C(=O)Nc2cnoc2)c(O)c(=O)n1C` [Example 8], the IC50 is reported as < 0.1 µM.
With `Cc1cccnc1C(c1ccccc1)N(C)c1nc(C(=O)Nc2cnoc2)c(O)c(=O)n1C` (single isomer, unassigned) [Example 59] the IC50 was < 0.1 µM.
With `CN(Cc1ccccc1Cl)c1nc(C(=O)Nc2cnoc2)c(O)c(=O)n1C` [Example 74] the IC50 was < 0.1 µM.
With `CC(C)N(Cc1ccccc1)c1nc(C(=O)Nc2cnoc2)c(O)c(=O)n1C` [Example 29] the IC50 was < 0.1 µM.
In the case of `CN(c1nc(C(=O)Nc2cnoc2)c(O)c(=O)n1C)C(c1ccccn1)c1c(Cl)cccc1Cl` (single isomer, unassigned) [Example 61], the IC50 is reported as < 0.1 µM.
For `CN(c1nc(C(=O)Nc2cnoc2)c(O)c(=O)n1C)C(c1ccccc1)c1ccccn1` (single isomer, unassigned) [Example 41], the IC50 was < 0.1 µM.
With `CCN(c1nc(C(=O)Nc2cnoc2)c(O)c(=O)n1C)C(c1ccccc1)c1ccccc1Cl` (single isomer, unassigned) [Example 91] the IC50 was < 0.1 µM.
With `CN(c1nc(C(=O)Nc2cnoc2)c(O)c(=O)n1C)C(c1ccccc1)c1ccccc1C#N` (single isomer, unassigned) [Example 86] the IC50 was < 0.1 µM.
In the case of `C[C@@H](c1ccccc1)N(C)c1nc(C(=O)Nc2cnoc2)c(O)c(=O)n1C` [Example 28], the IC50 is reported as < 0.1 µM.
For `CN(c1nc(C(=O)Nc2cnoc2)c(O)c(=O)n1C)C(c1ccccc1)c1cc(F)ccc1Cl` (single isomer, unassigned) [Example 87], the IC50 was < 0.1 µM.
In the case of `Cc1ccc(C(c2ccccc2)N(C)c2nc(C(=O)Nc3cnoc3)c(O)c(=O)n2C)cn1` (single isomer, unassigned) [Example 43], the IC50 is reported as < 0.1 µM.

These compounds were tested against T2, human TREX2 (residues M44-A279) (Homo sapiens, UniProt Q9BQ50) (assay: TREX2 Biochemical Assay (fluorescence, dsDNA substrate degradation)). Conditions: 2.5 nM TREX2, 60 nM dsDNA substrate, 25 minutes at room temperature.
T2 construct: human TREX2 (residues M44-A279, expressed in E. coli); His-TEV (His tag with TEV site) (N); made in house; host or cells: E. coli
T2 sequence (Q9BQ50 44-279 isoform Q9BQ50-1): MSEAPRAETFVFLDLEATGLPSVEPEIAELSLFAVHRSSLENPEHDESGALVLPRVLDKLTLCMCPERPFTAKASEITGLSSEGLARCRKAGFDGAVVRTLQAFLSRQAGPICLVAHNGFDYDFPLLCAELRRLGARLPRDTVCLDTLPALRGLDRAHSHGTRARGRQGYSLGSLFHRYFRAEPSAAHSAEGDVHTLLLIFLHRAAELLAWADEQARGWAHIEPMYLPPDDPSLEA
Procedure: Degradation of the dsDNA liberates free fluorophore to produce a fluorescent signal. Specifically, 7.5 μL of N-terminally His-Tev tagged human TREX2 (residues M44-A279, expressed in E. coli and purified in house) in reaction buffer (50 mM Tris (pH 7.4), 150 mM NaCl, 2 mM DTT, 0.1 mg/mL BSA, 0.01% (v/v) Tween-20 and 100 mM MgCl2) was added to a 384-well Black ProxiPlate Plus (Perkin Elmer) which already contained compound (150 nL) at varying concentrations as a 10 point dose-response in DMSO. To this was added 7.5 μL of dsDNA substrate (Strand A: 5′ TEX615/GCT AGG CAG 3′; Strand B: 5′ CTG CCT AGC/IAbRQSp (IDT)) in reaction buffer. Final concentrations were 2.5 nM TREX2, 60 nM dsDNA substrate in reaction buffer with 1.0% DMSO (v/v). After 25 minutes at room temperature, reactions were quenched by the addition of 5 μL of stop buffer (same as reaction buffer plus 200 mM EDTA). Final concentrations in the quenched reaction mixture were […] TREX2, 45 nM DNA and 50 mM EDTA in a volume of 20 μL. After a 5-minute incubation at room temperature, plates were read in a laser sourced Envision (Perkin-Elmer), measuring fluorescence at 615 nm following excitation w/570 nm light. IC50 values were calculated by comparing the measured fluorescence at 615 nm ratio relative to control wells pre-quenched w/stop buffer (100% inhibition) and no inhibitor (0% inhibition) controls as using non-linear least square four parameter fits and either Genedata or GraphPad Prism (GraphPad Software, Inc.).
With `CN(c1nc(C(=O)Nc2cnoc2)c(O)c(=O)n1C)C(c1ccccc1)c1ncccc1Cl` (single isomer, unassigned) [Example 53] the IC50 was < 1 µM.
With `CN(c1nc(C(=O)Nc2cnoc2)c(O)c(=O)n1C)C(c1ccccc1Cl)C1CC1` (single isomer, unassigned) [Example 69] the IC50 was < 1 µM.
With `CN(Cc1cccc(Cl)c1)c1nc(C(=O)Nc2cnoc2)c(O)c(=O)n1C` [Example 8] the IC50 was 1 to 10 µM.
`Cc1cccnc1C(c1ccccc1)N(C)c1nc(C(=O)Nc2cnoc2)c(O)c(=O)n1C` (single isomer, unassigned) [Example 59] was tested, and the IC50 was < 1 µM.
In the case of `CN(Cc1ccccc1Cl)c1nc(C(=O)Nc2cnoc2)c(O)c(=O)n1C` [Example 74], the IC50 is reported as 1 to 10 µM.
`CC(C)N(Cc1ccccc1)c1nc(C(=O)Nc2cnoc2)c(O)c(=O)n1C` [Example 29] showed an IC50 of 1 to 10 µM.
`CN(c1nc(C(=O)Nc2cnoc2)c(O)c(=O)n1C)C(c1ccccn1)c1c(Cl)cccc1Cl` (single isomer, unassigned) [Example 61] was tested, and the IC50 was < 1 µM.
In the case of `CN(c1nc(C(=O)Nc2cnoc2)c(O)c(=O)n1C)C(c1ccccc1)c1ccccn1` (single isomer, unassigned) [Example 41], the IC50 is reported as < 1 µM.
With `CCN(c1nc(C(=O)Nc2cnoc2)c(O)c(=O)n1C)C(c1ccccc1)c1ccccc1Cl` (single isomer, unassigned) [Example 91] the IC50 was < 1 µM.
In the case of `CN(c1nc(C(=O)Nc2cnoc2)c(O)c(=O)n1C)C(c1ccccc1)c1ccccc1C#N` (single isomer, unassigned) [Example 86], the IC50 is reported as < 1 µM.
In the case of `C[C@@H](c1ccccc1)N(C)c1nc(C(=O)Nc2cnoc2)c(O)c(=O)n1C` [Example 28], the IC50 is reported as 1 to 10 µM.
With `CN(c1nc(C(=O)Nc2cnoc2)c(O)c(=O)n1C)C(c1ccccc1)c1cc(F)ccc1Cl` (single isomer, unassigned) [Example 87] the IC50 was < 1 µM.
With `Cc1ccc(C(c2ccccc2)N(C)c2nc(C(=O)Nc3cnoc3)c(O)c(=O)n2C)cn1` (single isomer, unassigned) [Example 43] the IC50 was < 1 µM.

These compounds were tested on HCT116 dual cells (assay: HCT116 Cell Assay (Lucia luciferase reporter of Type I interferon induction)). Conditions: 4 h pre-treatment, pBR322/BstNI DNA transfection, Lucia luciferase at 48 h; relative to 10 uM compound 39.
Type: cell-based, human
Source text: HCT116 dual cells (Invivogen, San Diego, Calif., USA) are derived from the human HCT116 colorectal carcinoma cell line. Cells have been selected for the stable integration of SEAP and Luciferase reporter genes, which expression is under the control of 5 tandem response elements for NF-KB/AP1 and STAT1/STAT2, respectively. The cell line was used to monitor Type I interferon induction and subsequent signaling by measuring the activity of the Lucia luciferase secreted in the culture medium.
HCT116 cells were plated in 96-well plate(s) at 40,000 cells/well in 100 uL DMEM supplemented with 10% FBS and 25 mM Hepes (pH 7.2-7.5). After overnight settling, cells were treated with TREX1i for 4 h (maximum DMSO fraction was 0.1%) before 1.25 ug/mL pBR322/BstNI restriction digest (New England Biolabs, Ipswich, Mass., USA) was transfected with Lipofectamine LTX (ThermoFisher, Grand Island, N.Y., USA), according to product manual recommendations. Briefly, Lipofectamine LTX (0.4 uL/well) was diluted in OptiMEM (5 uL/well). pBR322/BstNI (100 ng/well) was diluted in OptiMEM (5 uL/well) before Plus reagent (0.1 uL/100 ng DNA) was added. After 5 min incubation at room temperature, the DNA mixture was mixed dropwise with the diluted Lipofectamine LTX. After an additional 10 min incubation, the transfection mix (10 uL/well) was added to the cells. Cells were maintained at 37° C. for 48 h before monitoring the Lucia Luciferase activity from the cell culture medium. EC50 values were calculated by comparing the measured luminescence relative to 10 uM compound 39 (100% inhibition) and no inhibitor (0% inhibition) controls using non-linear least-squares four parameter fits in either Genedata Screener or GraphPad Prism (GraphPad Software, Inc.).
For `CN(c1nc(C(=O)Nc2cnoc2)c(O)c(=O)n1C)C(c1ccccc1Cl)C1CC1` (single isomer, unassigned) [Example 69], the EC50 was < 1 µM.
`Cc1cccnc1C(c1ccccc1)N(C)c1nc(C(=O)Nc2cnoc2)c(O)c(=O)n1C` (single isomer, unassigned) [Example 59] was tested, and the EC50 was < 1 µM.
For `CN(c1nc(C(=O)Nc2cnoc2)c(O)c(=O)n1C)C(c1ccccn1)c1c(Cl)cccc1Cl` (single isomer, unassigned) [Example 61], the EC50 was < 1 µM.
For `CN(c1nc(C(=O)Nc2cnoc2)c(O)c(=O)n1C)C(c1ccccc1)c1ccccc1C#N` (single isomer, unassigned) [Example 86], the EC50 was < 1 µM.

Same assay, conditions: Homo sapiens, HCT-116, 4 h pre-treatment, pBR322/BstNI DNA transfection, Lucia luciferase at 48 h; relative to 10 uM compound 39
For `CN(c1nc(C(=O)Nc2cnoc2)c(O)c(=O)n1C)C(c1ccccc1)c1ncccc1Cl` (single isomer, unassigned) [Example 53], the EC50 was < 1 µM.
Compound `CN(Cc1cccc(Cl)c1)c1nc(C(=O)Nc2cnoc2)c(O)c(=O)n1C` [Example 8] has an EC50 of 1 to 10 µM.
Compound `CN(Cc1ccccc1Cl)c1nc(C(=O)Nc2cnoc2)c(O)c(=O)n1C` [Example 74] has an EC50 of 1 to 10 µM.
Compound `CC(C)N(Cc1ccccc1)c1nc(C(=O)Nc2cnoc2)c(O)c(=O)n1C` [Example 29] has an EC50 of 10 to 100 µM.
`CN(c1nc(C(=O)Nc2cnoc2)c(O)c(=O)n1C)C(c1ccccc1)c1ccccn1` (single isomer, unassigned) [Example 41] was tested, and the EC50 was < 1 µM.
`CCN(c1nc(C(=O)Nc2cnoc2)c(O)c(=O)n1C)C(c1ccccc1)c1ccccc1Cl` (single isomer, unassigned) [Example 91] gave an EC50 of 1 to 10 µM.
Compound `C[C@@H](c1ccccc1)N(C)c1nc(C(=O)Nc2cnoc2)c(O)c(=O)n1C` [Example 28] has an EC50 of 1 to 10 µM.
With `CN(c1nc(C(=O)Nc2cnoc2)c(O)c(=O)n1C)C(c1ccccc1)c1cc(F)ccc1Cl` (single isomer, unassigned) [Example 87] the EC50 was < 1 µM.
For `Cc1ccc(C(c2ccccc2)N(C)c2nc(C(=O)Nc3cnoc3)c(O)c(=O)n2C)cn1` (single isomer, unassigned) [Example 43], the EC50 was 1 to 10 µM.
